Reference: PubChem BioAssay (NCI)
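Each compound was tested at five concentrations against cells in 96-well plates for 48 hours. TGI is the concentration that stops growth completely.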

Assays:
Experiment in all cases: inhibition of tumour cell growth, NCI panel, 48 h
[1] = system: DLD-1 colon
[2] = system: DMS 114 small cell lung
[3] = system: HOP-18 NSCLC
[4] = system: LXFL 529 NSCLC
[5] = system: M19-MEL melanoma
[6] = system: XF 498 CNS

Measured: TGI

CC1(C)OP23(NC(=O)OC2(C(F)(F)F)c2ccccc2O3)OC1(C)C (stereo unspecified)
> 100 µM: [1] | [2] | [3] | [4] | [5] | [6]
